In one series the target is T1, Bovine (aorta) LOX (Bos taurus, UniProt P33072).
T1 construct: Bovine (aorta) LOX used for analog screening due to ready availability; from tissue; host or cells: bovine aorta
T1 sequence (P33072 170-418): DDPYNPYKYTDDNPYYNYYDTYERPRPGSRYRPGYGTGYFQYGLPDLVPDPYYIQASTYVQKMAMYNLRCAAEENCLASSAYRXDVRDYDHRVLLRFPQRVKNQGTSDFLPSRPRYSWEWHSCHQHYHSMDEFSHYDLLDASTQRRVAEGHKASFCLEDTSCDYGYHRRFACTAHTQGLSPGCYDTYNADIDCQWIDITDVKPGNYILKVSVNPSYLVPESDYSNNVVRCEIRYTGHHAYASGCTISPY
Briefly: Amplex Red oxidation assay, LOX inhibition. In kind it is biochemical. The settings on record: 30 min pre-incubation. The protocol:
(§1) The measurement of the enzymatic activity of all lysyl oxidase family members was based on the detection of hydrogen peroxide with an Amplex-Red oxidation assay, as previously described; miniaturized in 384 well formats, with the appropriate combination of substrate and assay buffer for each individual enzyme. After a 30 min pre-incubation of the enzyme at 37 °C with the test compound (or with different incubation times for the time-dependency assay), one volume of reaction mixture containing 120 μM Amplex Red (AR) (Life Technologies), 1.5 U/mL horseradish peroxidase (HRP) (Sigma-Aldrich) and the specific substrate was added to each sample. The relative fluorescence units (RFU) were then measured every 2.5 min for 30 min at 37 °C, excitation 565 nm and emission 590, on a BMG Clariostar Microplate Reader. All the substrates were used at concentrations corresponding to their Km towards the corresponding enzyme, or with a range of different concentrations for the substrate competition experiments.
(§2) Lysyl oxidases assay buffer contained 1.2 M urea, 50 mM sodium borate buffer, pH 8.2 and 100 µM β-aminoproprionitrile (BAPN, Sigma-Aldrich) was used for low control.

The next series deals with T2, Human recombinant LOXL2 (Homo sapiens, UniProt Q9Y4K0).
T2 construct: purchased R&D Systems
T2 sequence (Q9Y4K0 26-774): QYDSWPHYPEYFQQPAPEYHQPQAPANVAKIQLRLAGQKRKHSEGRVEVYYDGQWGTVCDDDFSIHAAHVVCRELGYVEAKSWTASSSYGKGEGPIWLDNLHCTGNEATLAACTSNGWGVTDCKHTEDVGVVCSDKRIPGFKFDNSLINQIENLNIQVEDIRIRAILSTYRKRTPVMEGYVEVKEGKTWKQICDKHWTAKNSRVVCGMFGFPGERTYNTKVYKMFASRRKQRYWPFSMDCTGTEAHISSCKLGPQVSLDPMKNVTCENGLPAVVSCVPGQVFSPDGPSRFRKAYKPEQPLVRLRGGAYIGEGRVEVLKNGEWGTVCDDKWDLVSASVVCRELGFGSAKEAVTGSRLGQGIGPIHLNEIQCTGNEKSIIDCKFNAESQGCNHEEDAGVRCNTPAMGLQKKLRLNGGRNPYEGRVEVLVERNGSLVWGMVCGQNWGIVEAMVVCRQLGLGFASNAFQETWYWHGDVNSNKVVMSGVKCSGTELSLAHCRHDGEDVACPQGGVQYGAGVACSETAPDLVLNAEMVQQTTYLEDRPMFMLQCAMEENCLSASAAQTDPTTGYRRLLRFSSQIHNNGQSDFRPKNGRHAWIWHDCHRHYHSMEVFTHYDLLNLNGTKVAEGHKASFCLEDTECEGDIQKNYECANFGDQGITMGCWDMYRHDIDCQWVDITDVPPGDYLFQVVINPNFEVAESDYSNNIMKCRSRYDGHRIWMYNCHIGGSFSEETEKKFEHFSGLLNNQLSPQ
Briefly: Amplex Red oxidation assay, LOXL2 inhibition. Format: biochemical. The settings on record: 30 min pre-incubation; read-out: LOXL2 IC50. The method, then:
(§3) For compound oxidation assays, the amount of hydrogen peroxide generated at a single concentration (30 µM) of compound relative to DMSO was measured.
as §1, §2
Recombinant human LOXL1 was expressed and purified from cDNA (GeneArt) and 10 mM putrescine was used as substrate. Recombinant human and mouse LOXL2 (R&D Systems) were challenged with 5 mM putrescine (Sigma-Aldrich) as the substrate. Rat and dog recombinant LOXL2 were amplified and purified in house from HEK-293 clones kindly provided by Dr. Fernando Rodríguez Pascual, Madrid University, and used in the same conditions as for the human form. 2 mM putrescine was used as the substrate for recombinant human LOXL3 (R&D Systems) and LOXL4 (Dr. Fernando Rodríguez Pascual, university of Madrid, Spain) assays.

The target of the next series is T3, Human Recombinant SSAO (Homo sapiens, UniProt Q16853).
T3 sequence (Q16853 1-763): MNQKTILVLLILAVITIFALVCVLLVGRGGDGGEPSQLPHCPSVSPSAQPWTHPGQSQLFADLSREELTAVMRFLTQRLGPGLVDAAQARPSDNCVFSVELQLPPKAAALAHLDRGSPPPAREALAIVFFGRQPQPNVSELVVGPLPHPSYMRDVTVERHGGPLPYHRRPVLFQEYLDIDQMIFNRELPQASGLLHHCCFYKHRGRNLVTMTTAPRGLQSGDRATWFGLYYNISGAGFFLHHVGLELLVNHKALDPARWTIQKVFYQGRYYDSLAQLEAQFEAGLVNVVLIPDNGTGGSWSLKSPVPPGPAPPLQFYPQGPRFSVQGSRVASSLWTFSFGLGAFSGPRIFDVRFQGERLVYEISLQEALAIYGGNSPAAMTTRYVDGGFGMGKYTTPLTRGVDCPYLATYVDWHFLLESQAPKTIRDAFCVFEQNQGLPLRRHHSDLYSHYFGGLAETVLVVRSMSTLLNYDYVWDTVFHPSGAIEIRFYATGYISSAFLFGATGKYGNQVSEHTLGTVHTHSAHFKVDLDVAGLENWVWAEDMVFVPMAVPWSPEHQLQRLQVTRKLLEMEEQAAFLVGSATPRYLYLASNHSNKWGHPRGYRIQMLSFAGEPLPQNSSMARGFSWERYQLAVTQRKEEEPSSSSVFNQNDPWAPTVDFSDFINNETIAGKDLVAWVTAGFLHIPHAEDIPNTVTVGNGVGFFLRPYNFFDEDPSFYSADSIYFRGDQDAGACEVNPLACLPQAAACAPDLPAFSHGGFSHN
Put plainly: Compound oxidation assay (substrate propensity) by SSAO. Format: biochemical. The settings on record: single concentration 30 µM. The method, then:
as §3
Data are expressed as mean ± SEM. Subsequent statistical analysis was performed with unpaired two-sided Student’s t tests. *p < 0.05, **p < 0.01, ***p < 0.001and ****p < 0.0001. Source data are provided as a Source Data file.
This assay determines the substrate propensity of a compound relative to background (dimethyl sulfoxide only). Compound oxidation by rhSSAO was measured by fluorometric assay. Briefly, rhSSAO was incubated for 2 h at 37 °C in HEPES buffer before the addition of an equal volume of Amplex Red ([…]), horseradish peroxidase (4 U/ml), and test compound in the same buffer. The kinetics of the formation of resorufin was measured immediately using Optima reader (BMG Labtech GmbH, Ortenburg, Germany), at 37 °C.

A further series concerns chicken lysyl oxidase. More on the design: method as in earlier work. To be noted: cited from earlier work.
Series [1] can be described thus: Franz Cell skin permeability assay. Format: in vitro ADME, human. To be noted: average of 3 samples.

Several values for one entry are separate records, joined by “and”; a condition that tells them apart may be missing. Identical values can stand only once.

For `NC/C(=C/F)CCc1ccc(F)cc1` [Mofegiline, mofegiline, reference compound], the values for the IC50 on Bovine (aorta) LOX and at Human recombinant LOXL2 were 56 µM and more than 10 µM, respectively. Further, the “Oxidation by SSAO (hydrogen peroxide generated relative to DMSO)” value at Human Recombinant SSAO is listed as 1.0. In the series on chicken lysyl oxidase, the “inhibition of chicken lysyl oxidase activity” value was “modest inhibitor”.

Turning to `NC/C=C(\F)C(F)(F)S(=O)(=O)c1ccccc1` [Samples 6302], the “Avg. 6302 concentration” value is on record as 0 µM in series [1] (0hr); 0.017 µM in series [1] (2hr); 0.042 µM in series [1] (4hr); 0.166 µM in series [1] (6hr); 1.742 µM in series [1] (20hr). Besides, the Avg.6302 concentration in series [1] (0hr) came out at 0.000 ng/mL; in series [1] (2hr), 4.559 ng/mL; in series [1] (4hr), 11.109 ng/mL; in series [1] (6hr), 44.135 ng/mL; in series [1] (20hr) it was 462.127 ng/mL.

`NCC(=CF)COc1ccccc1` [compound 1]: the IC50 (usually the concentration at which inhibition is half-maximal) on Bovine (aorta) LOX was more than 30 µM; on Human recombinant LOXL2 it was 9.5 µM. Moreover, the “Oxidation by SSAO (hydrogen peroxide generated relative to DMSO)” value on Human Recombinant SSAO was found to be 1.1.

On to `NC/C(=C\F)COc1ccccc1` [compound 2], for which the values for the IC50 at Bovine (aorta) LOX and at Human recombinant LOXL2 were more than 30 µM and 8.7 µM, respectively. In addition, the “Oxidation by SSAO (hydrogen peroxide generated relative to DMSO)” value on Human Recombinant SSAO came out at 1.1.

For `NC/C=C(/F)COc1ccccc1` [compound 3], the half-inhibitory concentration (IC50) on Bovine (aorta) LOX was 13.5 µM; on Human recombinant LOXL2, 2.9 µM. The “Oxidation by SSAO (hydrogen peroxide generated relative to DMSO)” value at Human Recombinant SSAO was found to be 12.0.

As for `NC/C=C(\F)COc1ccccc1` [compound 4], the IC50 at Bovine (aorta) LOX was 8.4 µM and 8 µM; on Human recombinant LOXL2, 1.1 µM.

As to `NC/C=C(\F)CN1CCc2ccccc21` [compound 5], the results for the IC50 at Bovine (aorta) LOX and on Human recombinant LOXL2 were 10.8 µM and 0.9 µM, respectively. Further, the “Oxidation by SSAO (hydrogen peroxide generated relative to DMSO)” value on Human Recombinant SSAO is reported as 2.6.

Turning to `NC/C=C(\F)CNc1ccccc1` [compound 6], the IC50 turned out to be 13.6 µM at Bovine (aorta) LOX and 3.4 µM on Human recombinant LOXL2. Besides, the “Oxidation by SSAO (hydrogen peroxide generated relative to DMSO)” value on Human Recombinant SSAO was 5.5.

Take `NC/C=C(\F)CSc1ccccc1` [compound 7]: the IC50 at Bovine (aorta) LOX worked out at 8.5 µM; on Human recombinant LOXL2 it was 1.1 µM. For the same molecule, the “Oxidation by SSAO (hydrogen peroxide generated relative to DMSO)” value on Human Recombinant SSAO is reported as 68.

The record behind these values is article PMC9500072, “Topical application of an irreversible small molecule inhibitor of lysyl oxidases ameliorates skin scarring and fibrosis” (Nature Communications, 2022).
